Data from US7947741B2, “Use and administration of bacterial efflux pump inhibitors” (Mpex Pharmaceuticals, Inc., priority 2004, dated 2011).
Values after ≈ are worked out from the molar mass of the structure shown. Read-outs that look alike come from different tables or passages of the source. Where a SMILES comes first, the peptide text is derived from it. Bridges are numbered along the chain shown (N, C = ends). [ ]: non-standard residue; d: D form. Dab = NCC[C@H](N)C(=O)O

Assays:
[1] = system: outer membrane of P. aeruginosa strain PAM2005; settings: Mg2+ free buffer, nitrocefin 64 μg/ml
[2] = system: P. aeruginosa PAM1020 (pump status none; target mutation none); experiment: microbe, parasite or virus in culture; assay type: cell-based, Pseudomonas aeruginosa; settings: Pseudomonas aeruginosa
Text: (§1) In addition to increased efflux, resistance to fluoroquinolones may be due to target mutations (gyrase and topoisimerase IV) or due to combination of these two resistance mechanisms in a single bacterial cell.

[3] = system: P. aeruginosa PAM1034 (MexEF-OprN); experiment: microbe, parasite or virus in culture; assay type: cell-based, Pseudomonas aeruginosa; settings: Pseudomonas aeruginosa
Text: as §1

[4] = system: P. aeruginosa PAM1482 (MexCD-OprJ; gyrA (Asp87Tyr)); experiment: microbe, parasite or virus in culture; assay type: cell-based, Pseudomonas aeruginosa; settings: Pseudomonas aeruginosa
Text: as §1

[5] = system: P. aeruginosa PAM1569 (MexCD-OprJ; gyrA (Thr83Ile)); experiment: microbe, parasite or virus in culture; assay type: cell-based, Pseudomonas aeruginosa; settings: Pseudomonas aeruginosa
Text: as §1

[6] = system: P. aeruginosa PAM1033 (MexCD-OprJ); experiment: microbe, parasite or virus in culture; assay type: cell-based, Pseudomonas aeruginosa; settings: Pseudomonas aeruginosa
Text: as §1

[7] = system: P. aeruginosa PAM1491 (MexEF-OprN; gyrA (Asp87Tyr)); experiment: microbe, parasite or virus in culture; assay type: cell-based, Pseudomonas aeruginosa; settings: Pseudomonas aeruginosa
Text: as §1

[8] = system: P. aeruginosa PAM1032 (MexAB-OprM); experiment: microbe, parasite or virus in culture; assay type: cell-based, Pseudomonas aeruginosa; settings: Pseudomonas aeruginosa
Text: as §1

[9] = system: P. aeruginosa PAM1548 (pump status none; gyrA (Thr83Ile)); experiment: microbe, parasite or virus in culture; assay type: cell-based, Pseudomonas aeruginosa; settings: Pseudomonas aeruginosa
Text: as §1

[10] = system: P. aeruginosa PAM1570 (MexEF-OprN; gyrA (Thr83Ile)); experiment: microbe, parasite or virus in culture; assay type: cell-based, Pseudomonas aeruginosa; settings: Pseudomonas aeruginosa
Text: as §1

[11] = system: P. aeruginosa PAM1723 (MexAB-OprM overexpressed); assay type: cell-based, Pseudomonas aeruginosa
[12] = system: P. aeruginosa PAM2281 (MexAB-OprM, MexEF-OprN); experiment: microbe, parasite or virus in culture; assay type: cell-based, Pseudomonas aeruginosa; settings: Pseudomonas aeruginosa
Procedure: (§2) A set of strains that simultaneously over-expressed pairs or triplicates of pumps, e.g. PAM2302 and PAM2303 was tested. Simultaneous over-expression of efflux pumps has been recently detected in clinical strains.

[13] = system: P. aeruginosa PAM2466 (MexAB-OprM, MexXY-OprM); experiment: microbe, parasite or virus in culture; assay type: cell-based, Pseudomonas aeruginosa; settings: Pseudomonas aeruginosa
Procedure: as §2

[14] = system: P. aeruginosa PAM1438 (MexAB-OprM, MexCD-OprJ); experiment: microbe, parasite or virus in culture; assay type: cell-based, Pseudomonas aeruginosa; settings: Pseudomonas aeruginosa
Procedure: as §2

[15] = system: P. aeruginosa PAM2282 (MexAB-OprM, MexEF-OprN); experiment: microbe, parasite or virus in culture; assay type: cell-based, Pseudomonas aeruginosa; settings: Pseudomonas aeruginosa
Procedure: as §2

[16] = system: P. aeruginosa PAM2302 (MexAB-OprM, MexCD-OprJ, MexEF-OprN); experiment: microbe, parasite or virus in culture; assay type: cell-based, Pseudomonas aeruginosa; settings: Pseudomonas aeruginosa
Procedure: as §2

[17] = system: P. aeruginosa PAM1154 (MexAB-OprM deleted); assay type: cell-based, Pseudomonas aeruginosa
PAM1723 cells = experiment: EtBr uptake (proton gradient disruption); assay type: cell-based, Pseudomonas aeruginosa; settings: CCCP 50 μg/ml for 15 minutes, pentamidine 80 μg/ml
Procedure: A proton gradient is necessary for efflux pump activity. Accordingly, compounds that are capable of proton gradient disruption will appear as efflux inhibitors in accumulation assays. This possibility was tested for pentamidine. EtBr is a substrate of the MexAB-OprM efflux pump from P. aeruginosa as evident from the differential rates of its uptake in PAM 1723 and PAM 1626, MexAB-OprM overexpressing or lacking strains, respectively. CCCP is a well-known protonophore, which rapidly dissipates the proton gradient.

[18] = system: 108 recent clinical isolates of P. aeruginosa obtained from cystic fibrosis patients; experiment: Susceptibility of cystic fibrosis clinical isolates (broth-micro-dilution, NCCLS); assay type: cell-based, Pseudomonas aeruginosa; settings: 108 CF isolates; combinations with 20 μg/ml of pentamidine
[19] = system: P. aeruginosa PAM1723 (nalB, overexpressing MexAB-OprM); experiment: microbe, parasite or virus in culture; assay type: cell-based, Pseudomonas aeruginosa; settings: Pseudomonas aeruginosa, read-out: Levofloxacin MIC in the presence of inhibitor, PAM1723; inhibitor 0 μg/ml
Procedure: Stock solutions were further diluted, according to the needs of a particular assay, in Mueller Hinton Broth (MHB). Stock solution was stored at −80° C.
The checkerboard assay was performed in microtiter plates. […] The result of these manipulations is that each well of the microtiter plate contains a unique combination of concentrations of the two agents. The assay was performed in MHB with a final bacterial inoculum of 5×10^5 CFU/ml (from an early-log phase culture). Microtiter plates were incubated during 20 h at 35° C. and were read using a microtiterplate reader (Molecular Devices) at 650 nm as well as visual observation using a microtiter plate reading mirror.
The test organisms used was PAM1020, which is a wild type strain of P. aeruginosa expressing the basal level of MexAB-OprM, as well as PAM1723, PAM1738, and PAM1753, overexpressing the MexAB-OprM, MexCD-OprJ, and MexEF-OprN pump, respectively.
Efflux pump inhibitory activity of several commercially available diamidine analogs was evaluated using the checkerboard assay of Example 1 against the strain of P. aeruginosa overexpressing the MexAB-OprM efflux pump.

[20] = read-out: Ciprofloxacin MIC w/o pentamidine
[21] = read-out: Levofloxacin MIC w/o pentamidine

CC(C)C[C@@H]1NC(=O)[C@@H](Cc2ccccc2)NC(=O)[C@H](CCN)NC(=O)[C@@H](NC(=O)[C@H](CCN)NC(=O)[C@@H](N)[C@@H](C)O)CCNC(=O)[C@H]([C@@H](C)O)NC(=O)[C@H](CCN)NC(=O)[C@H](CCN)NC1=O [PMBN] (H-T[Dab][Dab][Dab][dF]L[Dab][Dab]T; lactam 3-C; N-terminus assumed)
IC50, permeabilization of the outer membrane [1]: < 2 µg/mL

O=C(O)c1cn(C2CC2)c2cc(N3CCNCC3)c(F)cc2c1=O [Ciprofloxacin, ciprofloxacin]
MIC [2, 20]: 0.06 µg/mL
MIC [3, 20]: 1 µg/mL
MIC [4, 20]: 8 µg/mL
MIC [5, 20]: 16 µg/mL
MIC [6, 20]: 1 µg/mL
MIC [7, 20]: 8 µg/mL
MIC [8, 20]: 0.5 µg/mL
MIC [9, 20]: 2 µg/mL
MIC [10, 20]: 16 µg/mL
MIC, No Pentamidine ([11]; PAM1723 (MexAB-OprM overexpressed)): 0.25 µg/mL (≈ 0.754 µM)
MIC, Pentamidine (40 μg/ml) ([11]; PAM1723 (MexAB-OprM overexpressed), in the presence of pentamidine 40 μg/ml): 0.03
decrease of the MIC by pentamidine ([11]; PAM1723, pentamidine 40 μg/ml): 8 fold
MIC [12, 20]: 8 µg/mL (≈ 24.1 µM)
MIC [13, 20]: 0.5 µg/mL (≈ 1.51 µM)
MIC [14, 20]: 16 µg/mL (≈ 48.3 µM)
MIC [15, 20]: 2 µg/mL (≈ 6.04 µM)
MIC [16, 20]: 2 µg/mL (≈ 6.04 µM)
MIC, No Pentamidine [17]: 0.008 µg/mL (≈ 0.0241 µM)

N#CC(C#N)=NNc1cccc(Cl)c1 [CCCP]
EtBr uptake (PAM1723 cells): dramatic increase of EtBr uptake

C[C@H]1COc2c(N3CCN(C)CC3)c(F)cc3c(=O)c(C(=O)O)cn1c23 [Levofloxacin, levofloxacin]
MIC [2, 21]: 0.25 µg/mL
MIC [3, 21]: 4 µg/mL
MIC [4, 21]: 16 µg/mL
MIC [5, 21]: 32 µg/mL
MIC [6, 21]: 4 µg/mL
MIC [7, 21]: 32 µg/mL
MIC [8, 21]: 2 µg/mL
MIC [9, 21]: 2 µg/mL
MIC [10, 21]: 32 µg/mL
MIC50 [18]: 2 µg/mL
MIC90 [18]: 8 µg/mL
MIC [19]: 2 µg/mL
MIC [12, 21]: 8 µg/mL (≈ 22.1 µM)
MIC [13, 21]: 2 µg/mL (≈ 5.53 µM)
MIC [14, 21]: 4 µg/mL (≈ 11.1 µM)
MIC [15, 21]: 8 µg/mL (≈ 22.1 µM)
MIC [16, 21]: 8 µg/mL (≈ 22.1 µM)
